Source: US10893676B2, “1-acetyl-3-phenyl urea compound, and use thereof” (Sumitomo Chemical Company, Limited, priority 2016, dated 2021)

Experiments:
Arabidopsis thaliana = assay: Inhibitory activity on emergence of Arabidopsis thaliana (24 well plate, filter paper); format: in vivo; conditions: treatment concentration 8000 ppm, visually evaluated seven days after sowing, indices 0 (no effect) to 100 (no emergence)
Procedure: Inhibitory Activity on Emergence of Arabidopsis thaliana
Each well of 24 well microtiter plates was matted with a filter paper, and to the filter paper was added dropwise the solution in which the present compound or the compound B was dissolved in acetone. After air-drying, distilled water was added to each well so that the concentration of the present compound or the compound B in each well would be 8000 ppm. Next, seeds of Arabidopsis thaliana were sown into each well containing the present compound or the compound B, followed by putting a lid on each well, and cultivating Arabidopsis thaliana under the condition that a cultivation at 25° C. under lighting for 16 hours and a successive cultivation at 25° C. under dark for 8 hours were repeated. Seven days after sowing, the inhibitory activity on emergence of Arabidopsis thaliana was visually evaluated by classifying the activity into 0 to 100 indices (0: no effect to 100: no emergence).

Amaranthus retroflexus = assay: Post-emergence treatment test in a farmland (foliar spray, greenhouse pots); format: in vivo; conditions: application rate 4 kg/ha, sprayed at two-leaf stage, visually evaluated nine days after spraying, 11 stages from 0 (no effect) to 10 (complete kill)
Procedure: Nursery soil was put in a plastic pot measuring 8 cm in diameter and 6.5 cm in height, and in the pot, seeds of Amaranthus retroflexus were sown, and then covered with soil of about 0.5 cm thickness, and the plants were grown in a greenhouse. When the Amaranthus retroflexus plants were grown to two-leaf stage, a diluted solution containing either the present compound or a compound represented by formula (B) below (which is described in European Patent No. 1122244 B2) (hereinafter, referred to as Compound B) was uniformly sprayed on the whole Amaranthus retroflexus plants so that the application rates of the chemicals would be values indicated in Table 1.
Here the diluted solution was prepared by dissolving the present compound or the compound B in dimethylformamide solution containing 2% of Tween 20 (polyoxyethylene sorbitan fatty acid ester) (manufactured by MP Biomedicals Inc.) and then diluting the solution with deionized water.
The Amaranthus retroflexus plants that were sprayed with the diluted solution containing the present compound or the compound B were grown in a greenhouse. Nine days after spraying, the efficacy for controlling Amaranthus retroflexus plants was observed, thereby examining a herbicidal effect. Here the herbicidal effect was visually observed and evaluated by classifying the effect into 11 stages from 0 (no effect) to 10 (complete kill).

Row | SMILES | Inhibitory Activity on Emergence (Arabidopsis thaliana) | Herbicidal Effect (Amaranthus retroflexus) | Inhibitory Activity on Emergence (Arabidopsis thaliana; listed as present compound) | Herbicidal Effect (Amaranthus retroflexus; listed as present compound)
1 | CCOC(=O)COc1ncccc1Oc1cc(NC(C)=O)c(F)cc1Cl [Compound B, N-[4-chloro-2-fluoro-5-{2-(ethoxycarbonyl)methoxy-3-pyridyloxy}phenyl]acetamide, reference compound] | 30 | 1 | – | –
2 | CCOC(=O)COc1ncccc1Oc1cc(NC(=O)NC(C)=O)c(F)cc1Cl [Present compound] | 80 | 8 | higher inhibitory activity compared to the compound B | higher herbicidal effect compared to the compound B
